{"source": "patent US7511026B2", "about": "“Therapeutic agent for nerve damage” (Seikagaku Corporation, priority 2003, dated 2009)", "format_in_all_cases": "in vivo, Wister rats", "key": {"[1]": {"tested_on": "spinal cord injury model", "test": "Evaluation on performance status (walking) after spinal cord injury", "settings": "7 days after the administration; PBS-administered group showed difficulty in walking", "experimental": "(§1) Wister rats (SPF, male) were used as animals, and each body was shaved from the neck to the hip using an electric hair clipper under pentobarbital (50 mg/kg weight) anesthesia and cleaned with 70% ethanol and Isodine (manufactured by Meiji Seika Kaisha, Ltd.). The dorsal skin was incised to expose thoracic vertebra from T5 to T10, and hemilaminectomy of the sixth thoracic vertebra (T6 thoracic vertebra) was performed to make a small incision in the dura mater, followed by regional anesthesia with xylocaine (manufactured by Astra Zeneca). Subsequently, two models were prepared as follows: a spatula (the tip of which had been processed into 0.3 mm) was inserted to the T6 position from the dorsal until the tip reached the abdominal centrum and maintained for 10 minutes to injure the spinal cord (slightly injured model), while a tweezer (the tip of which had been processed into 0.3 mm) was inserted until the tip reached the abdominal centrum, and the portion was pinched from both sides for 10 seconds to injure the spinal cord (seriously injured model). A respirator was used only when spinal cord evoked potentials were measured. The respirator was inserted into the windpipe under 1.0 to 2.0% halothane anesthesia and stabilized with a muscle relaxant. […]"}, "[2]": {"tested_on": "spinal cord injury, slightly injured model", "test": "Spinal cord evoked potential (SCEP), slightly injured model", "settings": "HA4 60 μg/animal/day, 7 days after injury", "experimental": "(§2) Wister rats (SPF, male) were used as animals, and each body was shaved from the neck to the hip using an electric hair clipper under pentobarbital (50 mg/kg weight) anesthesia and cleaned with 70% ethanol and Isodine (manufactured by Meiji Seika Kaisha, Ltd.). The dorsal skin was incised to expose thoracic vertebra from T5 to T10, and hemilaminectomy of the sixth thoracic vertebra (T6 thoracic vertebra) was performed to make a small incision in the dura mater, followed by regional anesthesia with xylocaine (manufactured by Astra Zeneca). […] A respirator was used only when spinal cord evoked potentials were measured. […]\n(§3) 7 days after the spinal cord injury, the spinal cord evoked potentials were determined. […] Then, the spinal cord evoked potential (SCEP) was measured, and the “mean±SD” was calculated. The resultant potentials were evaluated using the amplitude of the first potential as an indicator. […]"}, "[3]": {"tested_on": "spinal cord injury, seriously injured model (I)", "test": "Spinal cord evoked potential (SCEP), seriously injured model (I)", "settings": "for SCEP amplitude (first potential): 7 days after injury, vs PBS-administered group", "experimental": "Wister rats (SPF, male) were used as animals, and each body was shaved from the neck to the hip using an electric hair clipper under pentobarbital (50 mg/kg weight) anesthesia and cleaned with 70% ethanol and Isodine (manufactured by Meiji Seika Kaisha, Ltd.). The dorsal skin was incised to expose thoracic vertebra from T5 to T10, and hemilaminectomy of the sixth thoracic vertebra (T6 thoracic vertebra) was performed to make a small incision in the dura mater, followed by regional anesthesia with xylocaine (manufactured by Astra Zeneca). Subsequently, two models were prepared as follows: a spatula (the tip of which had been processed into 0.3 mm) was inserted to the T6 position from the dorsal until the tip reached the abdominal centrum and maintained for 10 minutes to injure the spinal cord (slightly injured model), while a tweezer (the tip of which had been processed into 0.3 mm) was inserted until the tip reached the abdominal centrum, and the portion was pinched from both sides for 10 seconds to injure the spinal cord (seriously injured model). A respirator was used only when spinal cord evoked potentials were measured. The respirator was inserted into the windpipe under 1.0 to 2.0% halothane anesthesia and stabilized with a muscle relaxant.\nAfter the injury, HA4 (6 μl) was immediately administered using a microsyringe (25 μl; manufactured by Ito Seisakusyo Co., Ltd.) into the dura mater. Thereafter, the tip (OD: 0.3 mm) of a tube that was filled with HA4 and connected with an osmotic pump (model 1002, manufactured by Alzet) was placed under the dura mater of the rostral in the injured portion, and HA4 was continuously administered for 7 days. […]\nas §3"}, "[4]": {"tested_on": "spinal cord injury, seriously injured model (II)", "test": "Spinal cord evoked potential (SCEP), seriously injured model (II)", "settings": "HA4 6.0 μg/animal/day, vs physiological saline-administered group, p<0.05", "experimental": "as §2, §3"}, "[5]": {"tested_on": "spinal cord injury, slightly injured model", "test": "Histopathologic evaluation of injured spinal cord (Kluver-Barrera staining), slightly injured model", "experimental": "as §1, with “relaxant. After the injury, HA4 (6 μl) was immediately administered using a microsyringe (25 μl; manufactured by Ito Seisakusyo Co., Ltd.) into the dura mater. Thereafter, the tip (OD: 0.3 mm) of a tube that was filled with HA4 and connected with an osmotic pump (model 1002, manufactured by Alzet) was placed under the dura mater of the rostral in the injured portion, and HA4 was continuously administered for 7 days. Meanwhile, 5 minutes, 2 hours, 4 hours, and 6 hours after the injury, 30 mg/kg of methylprednisolone sodium succinate (MPSS, manufactured by Pharmacia) was administered into the tail vein as a positive control. For separating the injured portion from the surrounding tissues, a gelatin sponge (Gelform; manufactured by Pharmacia) was placed, and the rat was brought back to a feeding gauge after the wound had been sewn.” for “relaxant.”"}, "[6]": {"tested_on": "spinal cord injury, severely injured model (II)", "test": "Balance beam and metal gauze crossing tests, severely injured model (II)", "settings": "7 days after spinal cord injury, mean of four crossings, P<0.0001 vs physiological saline-administered group", "experimental": "Wister rats (SPF, male) were used as animals, and each body was shaved from the neck to the hip using an electric hair clipper under pentobarbital (50 mg/kg weight) anesthesia and cleaned with 70% ethanol and Isodine (manufactured by Meiji Seika Kaisha, Ltd.). The dorsal skin was incised to expose thoracic vertebra from T5 to T10, and hemilaminectomy of the sixth thoracic vertebra (T6 thoracic vertebra) was performed to make a small incision in the dura mater, followed by regional anesthesia with xylocaine (manufactured by Astra Zeneca). Subsequently, two models were prepared as follows: a spatula (the tip of which had been processed into 0.3 mm) was inserted to the T6 position from the dorsal until the tip reached the abdominal centrum and maintained for 10 minutes to injure the spinal cord (slightly injured model), while a tweezer (the tip of which had been processed into 0.3 mm) was inserted until the tip reached the abdominal centrum, and the portion was pinched from both sides for 10 seconds to injure the spinal cord (seriously injured model). A respirator was used only when spinal cord evoked potentials were measured. […] Then, the numbers of slips in the hind limb were recorded, and evaluated by the mean value (FIG. 12). As for the sham surgery group prepared by making a small incision in the dura mater (Sham), the number of slips in the hind limb was also determined."}, "[7]": {"tested_on": "spinal cord injury, severely injured model (II)", "test": "Hind limb motor function test (BBB scale), severely injured model (II)", "settings": "HA4 6 μg/day, over 1 to 7 days after the spinal cord injury, P<0.0001 vs physiological saline-administered group", "experimental": "Wister rats (SPF, male) were used as animals, and each body was shaved from the neck to the hip using an electric hair clipper under pentobarbital (50 mg/kg weight) anesthesia and cleaned with 70% ethanol and Isodine (manufactured by Meiji Seika Kaisha, Ltd.). The dorsal skin was incised to expose thoracic vertebra from T5 to T10, and hemilaminectomy of the sixth thoracic vertebra (T6 thoracic vertebra) was performed to make a small incision in the dura mater, followed by regional anesthesia with xylocaine (manufactured by Astra Zeneca). Subsequently, two models were prepared as follows: a spatula (the tip of which had been processed into 0.3 mm) was inserted to the T6 position from the dorsal until the tip reached the abdominal centrum and maintained for 10 minutes to injure the spinal cord (slightly injured model), while a tweezer (the tip of which had been processed into 0.3 mm) was inserted until the tip reached the abdominal centrum, and the portion was pinched from both sides for 10 seconds to injure the spinal cord (seriously injured model). A respirator was used only when spinal cord evoked potentials were measured. […] According to the method described by Basso et al., two test examiners individually evaluated blindly using the Basso-Beeattie-Bresnahan (BBB) scale, and the mean values were defined as the final score (FIG. 13)."}}, "data": [{"smiles": "CC(=O)N[C@H]1[C@H](O[C@H]2[C@H](O)[C@@H](O)[C@H](O[C@H]3[C@H](O)[C@@H](CO)OC(O)[C@@H]3NC(C)=O)O[C@@H]2C(=O)O)O[C@H](CO)[C@@H](O)[C@@H]1O[C@@H]1O[C@H](C(=O)O)[C@@H](O)[C@H](O)[C@H]1O", "note": "(stereo partly shown) [HA4, GlcA-GlcNAc-GlcA-GlcNAc]", "values": [{"measurement": "performance status (walking)", "setting": "[1]", "value": "walking approximately similar to that of the normal rat was observed"}, {"measurement": "SCEP amplitude level relative to normal (no injury-no treatment group)", "setting": "[2]", "value": "the same as the normal level"}, {"measurement": "SCEP amplitude (first potential)", "setting": "[2]; intradural, continuous 7 days, vs PBS-administered group, p<0.05", "value": "decrease of SCEP amplitude was significantly attenuated or the SCEP amplitude was recovered"}, {"measurement": "SCEP amplitude (first potential)", "setting": "[3]; HA4 0.6 μg/animal/day, p<0.05", "value": "decrease of the SCEP amplitude was significantly attenuated or the SCEP amplitude was recovered"}, {"measurement": "SCEP effect compared with MPSS", "setting": "[3]; HA4 6 μg/animal/day vs MPSS 30 mg/kg x 4 times, tail vein", "value": "stronger effect than that of MPSS"}, {"measurement": "SCEP amplitude (first potential)", "setting": "[3]; HA4 6 μg/animal/day, p<0.001, same level as the normal level", "value": "decrease of the SCEP amplitude was significantly attenuated or the SCEP amplitude was recovered"}, {"measurement": "SCEP amplitude", "setting": "[4]", "value": "significantly recovered"}, {"measurement": "number of axons crossing from white matter to gray matter", "setting": "[5]; 5 mm range in the rostral/caudal direction in the injured site, vs physiological saline-administered group", "value": "significantly larger"}, {"measurement": "tissue injury, edema and myelin loss in white matter", "setting": "[5]; Kluver-Barrera staining, PBS group showed edema and myelin loss 1 cm or more from the injured site", "value": "the tissue injury was present only near the injured site, and edema and myelin loss were rarely observed in white matter"}, {"measurement": "injured area (damaged area)", "setting": "[5]; coronal plane including the central canal, vs PBS-administered group", "value": "significantly smaller"}, {"measurement": "number of slips in the hind limb, balance beam crossing", "setting": "[6]", "value": "significantly low"}, {"measurement": "number of slips in the hind limb, metal gauze crossing", "setting": "[6]", "value": "significantly low"}, {"measurement": "motor function in the hind limb (BBB scale)", "setting": "[7]", "value": "significantly recovered"}]}]}
